Like-named read-outs stand apart in the source and are kept apart here.
Experiments:
HIV-1 protease (Q7S) = target: T1, HIV-1 protease (Q7S) (Human immunodeficiency virus type 1 group M subtype B, UniProt P04585, Q495S); test: HIV-1 Protease RET Assay; assay type: biochemical; conditions: RET assay, Q7S enzyme, pH 4.8, 37 C
T1 construct: made in house
In short: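 Ki values came from a RET assay on refolded Q7S protease (2 nM active dimer) cleaving RE(EDANS)SQNYPIVQK(DABCYL)R at 5 μM, read at ex 340/em 490 nm. Reactions ran 12 min at 37 C in 0.1M sodium acetate pH 4.8, 1M NaCl, 5 mM DTT, 10% DMSO; curves were fit with the Morrison tight-binding equation.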

HIV-1 = test: Cytopathic Effect (CPE) Inhibition Assay (XTT dye reduction); assay type: cell-based; conditions: Human immunodeficiency virus 1, 144 h
In short: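 CEM-SS or MT-2 cells infected with HIV-1 RF or NL4–3 (moi 0.025–0.819), 2×10^4 cells/well, incubated six days with half-log compound dilutions. Viability read by XTT formazan at 450 nm; EC50 is the concentration restoring 50% of uninfected-control formazan, CC50 from uninfected treated cells, therapeutic index CC50/EC50.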

[1] = test system: HIV-1 NL4–3 or HIV-1 NL4–3(184V/L90M); test: Susceptibility assay, p24 ELISA in infected MT-2 cells; assay type: cell-based; conditions: Human immunodeficiency virus 1, MT2, 72 h, read-out: EC50 or IC50 (mM)
Description: T-cell lines, CEM-SS, and MT-2, and viruses HIV-1 RF and HIV-1 NL4–3 (pNL4–3) were obtained from the National Institutes of Health (AIDS Research and Reference Reagent Program, Bethesda, Md.).
Compounds were tested in phenotypic susceptibility assays at Virologic, Inc., (See Petropoulos C. J., Parkin N. T., Limoli K. L., Lie Y. S., Wrin T., Huang W., Tian H., Smith D., Winslow G. A., Capon D J, Whitcomb J M. 2000, “A novel phenotypic drug susceptibility assay for human immunodeficiency virus type 1,” Antimicrob Agents Chemother 44(4):920–928) or using the assay described here. MT-2 cells were infected with either HIV-1 NL4–3 or HIV-1 NL4–3(184V/L90M) and incubated in the presence of serial 0.5 log dilutions of test compounds. Three days later, culture supernatants were collected and virus production, as determined by p24 ELISA, was assayed. Percent inhibition was calculated as p24 concentration in compound-treated samples as compared to infected, compound-free controls. Inhibition of viral replication is determined by measuring reduction in HIV p24 present in the culture supernatant, using a Beckman-Coulter p24 HIV-1 Ag EIA kit and following the supplied protocol. Absorbance is read on a MRX microplate reader (Dynex Technologies). The EC50 was calculated as the concentration of compound that effected a decrease in the p24 production by infected, compound-treated cells to 50% of that produced by infected, compound-free cells.

[2] = read-out: Ave CPE EC50 (mM), protection of infected cells, six days, XTT

Compound | Ki (HIV-1 protease (Q7S); read-out: Ave. Ki) [nM] | EC50 (HIV-1; [2]) [nM] | EC50 [1] [nM] | Ki (HIV-1 protease (Q7S); Ave. Ki (nM)) [nM] | melting point [°C] | EC50 (HIV-1; read-out: Ave CPE EC50 (mM)) [nM]
C=CCNC(=O)[C@H]1N(C(=O)[C@@H](O)[C@H](Cc2ccccc2)NC(=O)c2cc(C)cc(O)c2C)CSC1(C)C [Example D4, (R)-3-[(2S, 3S)-2-Hydroxy-3-(3-hydroxy-2,5-dimethyl-benzoylamino)-4-phenyl-butyryl]-5,5-dimethyl-thiazolidine-4-carboxylic acid allylamide] | 0.7 | 16 | 1950 | – | – | –
Cc1ccccc1CNC(=O)C1N(C(=O)C(O)C(Cc2ccccc2)NC(=O)c2c(C)c(=O)on2C)CSC1(C)C (stereo not shown) [Example B19, 2,4-Dimethyl-5-oxo-2,5-dihydro-isoxazole-3-carboxylic acid {1-benzyl-3-[5,5-dimethyl-4-(2-methyl-benzylcarbamoyl)-thiazolidin-3-yl]-2-hydroxy-3-oxo-propyl}-amide] | – | 124 | 1370 | < 0.1 | – | –
CCCN(C)C(=O)[C@H]1N(C(=O)[C@@H](O)[C@H](Cc2ccccc2)NC(=O)c2cccc(O)c2C)CSC1(C)C [Example A46, (R)-3-((2S,3S)-2-Hydroxy-3-{[1-(3-hydroxy-2-methyl-phenyl)-methanoyl]-amino}-4-phenyl-butanoyl)-5,5-dimethyl-thiazolidine-4-carboxylic acid methyl-propyl-amide] | – | 91 | 790 | 0.31 | 108 to 110 | –
Cc1c(O)cccc1C(=O)N[C@@H](Cc1ccccc1)[C@H](O)C(=O)N1CSC(C)(C)[C@H]1C(=O)NCc1ccccc1O [Example A44, (R)-3-((2S,3S)-2-Hydroxy-3-{[1-(3-hydroxy-2-methyl-phenyl)-methanoyl]-amino}-4-phenyl-butanoyl)-5,5-dimethyl-thiazolidine-4-carboxylic acid 2-hydroxy-benzylamide] | – | 22 | 472 | 0.14 | – | –
Cc1c(O)cccc1C(=O)N[C@@H](Cc1ccccc1)[C@H](O)C(=O)N1CSC(C)(C)[C@H]1C(=O)NCc1c(F)cccc1C(F)(F)F [Example A24, (R)-3-((2S,3S)-2-Hydroxy-3-{[1-(3-hydroxy-2-methyl-phenyl)-methanoyl]-amino}-4-phenyl-butanoyl)-5,5-dimethyl-thiazolidine-4-carboxylic acid fluoro-trifluoromethyl-benzylamide] | – | 104 | 831 | 0.18 | – | –
Cc1c(O)cccc1C(=O)N[C@@H](Cc1ccccc1)[C@H](O)C(=O)N1CSC(C)(C)[C@H]1C(=O)NCc1ccc(N)cc1 [Example A16, (R)-3-((2S,3S)-2-Hydroxy-3-{[1-(3-hydroxy-2-methyl-phenyl)-methanoyl]-amino}-4-phenyl-butanoyl)-5,5-dimethyl-thiazolidine-4-carboxylic acid 4-amino-benzylamide] | – | – | – | 0.63 | 107 to 109 | 134
COCCCC(=O)[C@H]1N(C(=O)[C@@H](O)[C@H](Cc2ccccc2)NC(=O)c2cccc(O)c2C)CSC1(C)C [Example D3, N-{1-Benzyl-2-hydroxy-3-[4-(4-methoxy-butanoyl)-5,5-dimethyl-thiazolidin-3-yl]-3-oxo-propyl}-3-hydroxy-2-methyl-benzamide] | – | 162 | 1950 | 0.5 | – | –
Cc1ccccc1CNC(=O)[C@H]1N(C(=O)[C@@H](O)[C@H](Cc2ccccc2)NC(=O)c2ccccc2C)CSC1(C)C [Example B16, 3-[2-Hydroxy-3-(2-methyl-benzoylamino)-4-phenyl-butyryl]-5,5-dimethyl-thiazolidine-4-carboxylic acid 2-methyl-benzylamide] | – | 298 | 1750 | < 0.1 | – | –
CC(C)=CCNC(=O)[C@H]1N(C(=O)[C@@H](O)[C@H](Cc2ccccc2)NC(=O)c2cccc(O)c2C)CSC1(C)C [Example A32, (R)-3-((2S,3S)-2-Hydroxy-3-{[1-(3-hydroxy-2-methyl-phenyl)-methanoyl]-amino}-4-phenyl-butanoyl)-5,5-dimethyl-thiazolidine-4-carboxylic acid (3-methyl-but-2-enyl)-amide] | – | 45 | 486 | < 0.1 | – | –
Cc1c(O)cccc1C(=O)N[C@@H](Cc1ccccc1)[C@H](O)C(=O)N1CSC(C)(C)[C@H]1C(=O)NCc1cccc(N(C)C)c1 [Example A39, (R)-3-((2S,3S)-2-Hydroxy-3-{[1-(3-hydroxy-2-methyl-phenyl)-methanoyl]-amino}-4-phenyl-butanoyl)-5,5-dimethyl-thiazolidine-4-carboxylic acid 3-dimethylamino-benzylamide] | – | – | – | 0.27 | 105 to 106 | 367
C/C=C(\C)CNC(=O)[C@H]1N(C(=O)[C@@H](O)[C@H](Cc2ccccc2)NC(=O)c2cccc(O)c2C)CSC1(C)C [Example A35, (R)-3-((2S,3S)-2-Hydroxy-3-{[1-(3-hydroxy-2-methyl-phenyl)-methanoyl]-amino}-4-phenyl-butanoyl)-5,5-dimethyl-thiazolidine-4-carboxylic acid ((E)-2-methyl-but-2-enyl)-amide] | – | 17 | 63 | < 0.1 | – | –
Cc1ccccc1CNC(=O)[C@H]1N(C(=O)[C@@H](O)[C@H](Cc2ccccc2)NC(=O)c2cccs2)CSC1(C)C [Example B5, (R)-3-{(2S,3S)-2-Hydroxy-4-phenyl-3-[(1-thiophen-2-yl-methanoyl)-amino]-butanoyl}-5,5-dimethyl-thiazolidine-4-carboxylic acid 2-methyl-benzylamide] | – | – | – | 1.6 | 98 to 101 | 508
Cc1ccccc1CNC(=O)C1N(C(=O)C(O)C(Cc2ccccc2)NC(=O)c2cccc(C)c2C)CSC1(C)C (stereo not shown) [Example B17, 3-[3-(2,3-Dimethyl-benzoylamino)-2-hydroxy-4-phenyl-butyryl]-5,5-dimethyl-thiazolidine-4-carboxylic acid 2-methyl-benzylamide] | – | 534 | 1580 | 0.42 | – | –
Cc1c(O)cccc1C(=O)N[C@@H](Cc1ccccc1)[C@H](O)C(=O)N1CSC(C)(C)[C@H]1C(=O)NCc1cccc(O)c1 [Example A42, (R)-3-((2S,3S)-2-Hydroxy-3-{[1-(3-hydroxy-2-methyl-phenyl)-methanoyl]-amino}-4-phenyl-butanoyl)-5,5-dimethyl-thiazolidine-4-carboxylic acid 3-hydroxy-benzylamide] | – | 126 | 307 | 0.23 | – | –
Cc1ccccc1CNC(=O)[C@H]1N(C(=O)[C@@H](O)[C@H](Cc2ccccc2)NC(=O)c2cccc(O)c2C)COC1(C)C [Example C6, (S)-3-((2S,3S)-2-Hydroxy-3-{[1-(3-hydroxy-2-methyl-phenyl)-methanoyl]-amino}-4-phenyl-butanoyl)-5,5-dimethyl-oxazolidine-4-carboxylic acid 2-methyl-benzylamide] | – | 164 | 1480 | < 0.1 | – | –
C/C=C/CNC(=O)[C@H]1N(C(=O)[C@@H](O)[C@H](Cc2ccccc2)NC(=O)c2cccc(O)c2C)CSC1(C)C [Example A38, (R)-3-((2S,3S)-2-Hydroxy-3-{[1-(3-hydroxy-2-methyl-phenyl)-methanoyl]-amino}-4-phenyl-butanoyl)-5,5-dimethyl-thiazolidine-4-carboxylic acid (E)-but-2-enylamide] | – | 78 | 401 | 0.17 | – | –
CC/C=C\CNC(=O)[C@H]1N(C(=O)[C@@H](O)[C@H](Cc2ccccc2)NC(=O)c2cccc(O)c2C)CSC1(C)C [Example A37, (R)-3-((2S,3S)-2-Hydroxy-3-{[1-(3-hydroxy-2-methyl-phenyl)-methanoyl]-amino}-4-phenyl-butanoyl)-5,5-dimethyl-thiazolidine-4-carboxylic acid (Z)-pent-2-enylamide] | – | – | – | 0.13 | 112 to 113 | 161
Cc1ccccc1CN(C)C(=O)[C@H]1N(C(=O)[C@@H](O)[C@H](Cc2ccccc2)NC(=O)c2cccc(O)c2C)CSC1(C)C [Example A7, 3-[2-Hydroxy-3-(3-hydroxy-2-methyl-benzoylamino)-4-phenyl-butyryl]-5,5-dimethyl-thiiazolidine-4-carboxylic acid methyl-(2-methyl-benzyl)-amide] | – | 104 | 832 | 0.49 | – | –

From patent US7169932B2 (priority 2001, dated 2007)
